The first assay concerns the target Human VPS34 (Homo sapiens (Human), UniProt Q8NEB9). Put plainly: Human VPS34 enzyme assay (Adapta TR-FRET). In kind it is biochemical. The conditions noted are these: compound concentration 1.11 μM; read-out: Percent Inhibition.
Sequence of Human VPS34 (Q8NEB9 whole entry): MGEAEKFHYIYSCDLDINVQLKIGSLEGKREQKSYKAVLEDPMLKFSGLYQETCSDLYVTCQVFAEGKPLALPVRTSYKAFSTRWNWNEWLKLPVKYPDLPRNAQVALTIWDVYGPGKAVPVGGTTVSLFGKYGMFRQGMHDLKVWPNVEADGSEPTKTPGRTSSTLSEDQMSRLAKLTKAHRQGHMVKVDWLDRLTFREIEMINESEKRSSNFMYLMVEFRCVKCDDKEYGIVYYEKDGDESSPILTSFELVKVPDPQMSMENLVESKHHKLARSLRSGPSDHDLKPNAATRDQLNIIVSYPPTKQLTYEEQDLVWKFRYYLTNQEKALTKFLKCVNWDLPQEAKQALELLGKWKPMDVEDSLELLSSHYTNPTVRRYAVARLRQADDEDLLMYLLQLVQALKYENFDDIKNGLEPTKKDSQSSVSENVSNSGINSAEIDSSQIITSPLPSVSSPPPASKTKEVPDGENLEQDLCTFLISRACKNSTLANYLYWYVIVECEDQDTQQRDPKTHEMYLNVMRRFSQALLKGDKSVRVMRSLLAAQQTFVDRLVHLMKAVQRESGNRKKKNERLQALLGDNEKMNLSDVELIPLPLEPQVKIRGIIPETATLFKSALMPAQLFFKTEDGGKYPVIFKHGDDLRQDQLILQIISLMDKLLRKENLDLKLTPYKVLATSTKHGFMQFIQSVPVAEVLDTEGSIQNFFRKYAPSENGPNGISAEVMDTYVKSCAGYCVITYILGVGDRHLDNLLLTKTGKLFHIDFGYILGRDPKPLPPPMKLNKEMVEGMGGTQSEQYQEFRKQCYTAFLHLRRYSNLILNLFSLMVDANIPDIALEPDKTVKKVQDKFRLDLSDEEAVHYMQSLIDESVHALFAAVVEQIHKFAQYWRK
For the compound `Cc1ncc(-c2ccnc(NC(=O)C3CCC3)c2)cc1NS(=O)(=O)c1ccc(F)cc1F` [Compound I-305, N-(5-{[(2,4-difluorophenyl)sulfonyl]amino}-6-methyl-3,4′-bipyridin-2′-yl)cyclobutanecarboxamide], the inhibition (in general, the percentage by which the read-out fell short of the control) at 1.11 µM was 94%.

Regarding `Cc1nc(Nc2cc(-c3cnc(C)c(NS(=O)(=O)c4ccc(F)cc4F)c3)ccn2)ccc1C#N` [Compound I-289, N-{2′-[(5-cyano-6-methylpyridin-2-yl)amino]-6-methyl-3,4′-bipyridin-5-yl}-2,4-difluorobenzene sulfonamide], the inhibition at 1.11 µM is greater than 99%.

As for `CNc1ncc(-c2ccnc(NC(C)=O)c2)c(C)c1S(=O)(=O)NC(C)(C)C` [Compound I-436, N-[5-(tert-butylsulfamoyl)-4-methyl-6-(methylamino)-3,4′-bipyridin-2′-yl]acetamide], the inhibition at 1.11 µM was 89%.

In the case of `CC(=O)Nc1cc(-c2cc(OS(=O)(=O)N(C)C)c3ccnn3c2)ccn1` [Compound I-428, 6-(2-acetamidopyridin-4-yl)pyrazolo[1,5-a]pyridin-4-yl dimethylsulfamate], the inhibition at 1.11 µM was greater than 99%.

`Cc1nccc(Nc2cc(-c3cnc(Cl)c(C(=O)N4CCC4)c3C)ccn2)n1` [Compound I-457, azetidin-1-yl{6-chloro-4-methyl-2′-[(2-methylpyrimidin-4-yl)amino]-3,4′-bipyridin-5-yl}methanone]: the inhibition at 1.11 µM came out at 95%.

As for `CC(=O)Nc1cc(-c2cnc(N)c(C(=O)Nc3cccc(F)c3F)c2)ccn1` [Compound I-179, 2′-acetamido-6-amino-N-(2,3-difluorophenyl)-3,4′-bipyridine-5-carboxamide], the inhibition at 1.11 µM is greater than 99%.

For the compound `CC(=O)Nc1cc(-c2cnc(Cl)c(N3CCCNS3(=O)=O)c2C)ccn1` [Compound I-473, N-[6-chloro-5-(1,1-dioxido-1,2,6-thiadiazinan-2-yl)-4-methyl-3,4′-bipyridin-2′-yl]acetamide], the inhibition at 1.11 µM was 87%.

Consider `CC(=O)Nc1cc(-c2cnc(C)c(NS(=O)(=O)c3ccc(Cl)cc3F)c2)ccn1` [Compound I-94, N-(5-{[(4-chloro-2-fluorophenyl)sulfonyl]amino}-6-methyl-3,4′-bipyridin-2′-yl)acetamide], for which the inhibition at 1.11 µM came out at 98%.

As for `Cc1nccc(Nc2cc(-c3cnc(Cl)c(C(=O)O)c3C)ccn2)n1` [Compound I-402, 6-chloro-4-methyl-2′-[(2-methylpyrimidin-4-yl)amino]-3,4′-bipyridine-5-carboxylic acid], the inhibition at 1.11 µM was 93%.

Regarding `CC(=O)Nc1cc(-c2cnc(C)c(N3CC(N(C)C)CS3(=O)=O)c2)ccn1` (single isomer, unassigned) [Compound I-496, N-(5-(4-(dimethylamino)-1,1-dioxidoisothiazolidin-2-yl)-6-methyl-[3,4′-bipyridin]-2′-yl)acetamide], the inhibition at 1.11 µM was greater than 99%.

As for `CC(=O)Nc1cc(-c2cnc3c(c2)CCN3)ccn1` [Compound I-67, N-[4-(2,3-dihydro-1H-pyrrolo[2,3-b]pyridin-5-yl)pyridin-2-yl]acetamide], the inhibition at 1.11 µM was greater than 99%.

On to `Cc1ccc(Nc2cc(-c3cnc(C)c(NS(=O)(=O)c4ccc(F)cc4F)c3)ccn2)nn1` [Compound I-307, 2,4-difluoro-N-{6-methyl-2′-[(6-methylpyridazin-3-yl)amino]-3,4′-bipyridin-5-yl}benzenesulfonamide], for which the inhibition at 1.11 µM is greater than 99%.

On to `CC(=O)Nc1cc(-c2cnc(Cl)c(C(=O)N3CCC3)c2)c(C)cn1` [Compound I-434], for which the inhibition at 1.11 µM amounted to 36%.

As to `CC(=O)Nc1cc(-c2cnc(C)c(NC(=O)c3ccc(F)cc3F)c2)ccn1` [Compound I-115, N-(2′-acetamido-6-methyl-3,4′-bipyridin-5-yl)-2,4-difluorobenzamide], the inhibition at 1.11 µM turned out to be 68%.

As for `CC(=O)Nc1cc(-c2cnc(N)c(S(=O)(=O)Cc3ccc(Cl)cc3)c2)ccn1` [Compound I-99, N-{6-amino-5-[(4-chlorobenzyl)sulfonyl]-3,4′-bipyridin-2′-yl}acetamide], the inhibition at 1.11 µM is greater than 99%.

In the case of `COc1ncc(-c2ccnc(NC(C)=O)c2)cc1S(=O)(=O)Nc1cccc(C(F)(F)F)c1` [Compound I-329, N-(6-methoxy-5-{[3-(trifluoromethyl)phenyl]sulfamoyl}-3,4′-bipyridin-2′-yl)acetamide], the inhibition at 1.11 µM was greater than 99%.

Consider `CC(=O)Nc1cc(-c2cnc(N)c(S(=O)(=O)NCC3CC3)c2)ccn1` [Compound I-108, N-{6-amino-5-[(cyclopropylmethyl)sulfamoyl]-3,4′-bipyridin-2′-yl}acetamide], for which the inhibition at 1.11 µM was greater than 99%.

For the compound `CC(=O)Nc1cc(-c2cncc(S(=O)(=O)NC(C)(C)C)c2)ccn1` [Compound I-443, N-[5-(tert-butylsulfamoyl)-3,4′-bipyridin-2′-yl]acetamide], the inhibition at 1.11 µM was greater than 99%.

Regarding `CC(=O)Nc1cc(-c2cnc(N)c(S(=O)(=O)C(C)C)c2)ccn1` [Compound I-175, N-[6-amino-5-(isopropylsulfonyl)-3,4′-bipyridin-2′-yl]acetamide], the inhibition at 1.11 µM was greater than 99%.

With `CC(=O)Nc1cc(-c2cncc(C(=O)N(C)C)c2)ccn1` [Compound I-48, 2′-acetamido-N,N-dimethyl-3,4′-bipyridine-5-carboxamide], the inhibition at 1.11 µM is greater than 99%.

On to `CC(=O)Nc1cc(-c2cnc3cn(S(=O)(=O)C4CC4)nc3c2)ccn1` [Compound I-105, N-{4-[2-(cyclopropylsulfonyl)-2H-pyrazolo[4,3-b]pyridin-6-yl]pyridin-2-yl}acetamide], for which the inhibition at 1.11 µM is greater than 99%.

In the case of `Cc1nc(Nc2cc(-c3cnc(C)c(NS(=O)(=O)c4ccc(F)cc4F)c3)ccn2)nc(C2CC2)n1` [Compound I-382, N-{2′-[(4-cyclopropyl-6-methyl-1,3,5-triazin-2-yl)amino]-6-methyl-3,4′-bipyridin-5-yl}-2,4-difluorobenzene sulfonamide], the inhibition at 1.11 µM was greater than 99%.

As for `CC(=O)Nc1cc(-c2cnc3c(c2)S(=O)(=O)N(C24CC(C2)C4)CCO3)ccn1` [Compound I-376, N-{4-[2-(bicyclo[1.1.1]pent-1-yl)-1,1-dioxido-3,4-dihydro-2H-pyrido[2,3-b][1,4,5]oxathiazepin-8-yl]pyridin-2-yl}acetamide], the inhibition at 1.11 µM worked out at 94%.

Consider `CNC(=O)c1cc(-c2ccnc(NC(C)=O)c2)cnc1N` [Compound I-57, 2′-acetamido-6-amino-N-methyl-3,4′-bipyridine-5-carboxamide], for which the inhibition at 1.11 µM is greater than 99%.

With `CC(=O)Nc1cc(-c2cnc(N)c(C(=O)NCC3CC3)c2)ccn1` [Compound I-14, 2′-acetamido-6-amino-N-(cyclopropylmethyl)-3,4′-bipyridine-5-carboxamide], the inhibition at 1.11 µM was greater than 99%.

As for `CC(=O)Nc1cc(-c2cnc(C#N)c(N3CCCCC3C)c2)ccn1` (stereo not shown) [Compound I-380, N-[6-cyano-5-(2-methylpiperidin-1-yl)-3,4′-bipyridin-2′-yl]acetamide], the inhibition at 1.11 µM was found to be 95%.

On to `CC(=O)Nc1cc(-c2cnc(N)c(S(=O)(=O)Cc3cccnc3)c2)ccn1` [Compound I-205, N-{6-amino-5-[(pyridin-3-ylmethyl)sulfonyl]-3,4′-bipyridin-2′-yl}acetamide], for which the inhibition at 1.11 µM is greater than 99%.

For the compound `Cc1nccc(Nc2cc(-c3cnc(C)c(C(=O)NCC4CC4)c3)ccn2)n1` [Compound I-285, N-(cyclopropylmethyl)-6-methyl-2′-((2-methylpyrimidin-4-yl)amino)-[3,4′-bipyridine]-5-carboxamide], the inhibition at 1.11 µM came out at 85%.

With `COC(=O)Nc1cc(-c2cnc(Cl)c(NS(=O)(=O)c3ccc(F)cc3F)c2C)ccn1` [Compound I-255, methyl (6-chloro-5-{[(2,4-difluorophenyl)sulfonyl]amino}-4-methyl-3,4′-bipyridin-2′-yl)carbamate], the inhibition at 1.11 µM was 95%.

On to `Cc1nccc(Nc2cc(-c3cnc(O)c(S(=O)(=O)NC4CCC4)c3)ccn2)n1` [Compound I-279, N-cyclobutyl-6-hydroxy-2′-[(2-methylpyrimidin-4-yl)amino]-3,4′-bipyridine-5-sulfonamide], for which the inhibition at 1.11 µM stood at 93%.

Regarding `CC(=O)Nc1cc(-c2cnc(N(C)C)c(S(=O)(=O)Nc3ccc(F)cc3F)c2)ccn1` [Compound I-491, N-{5-[(2,4-difluorophenyl)sulfamoyl]-6-(dimethylamino)-3,4′-bipyridin-2′-yl}acetamide], the inhibition at 1.11 µM came out at 98%.

For the compound `CC(=O)Nc1cc(-c2cnc(C)c(NS(=O)(=O)N3CCN(C)CC3)c2)ccn1` [Compound I-269, N-(6-methyl-5-{[(4-methylpiperazin-1-yl)sulfonyl]amino}-3,4′-bipyridin-2′-yl)acetamide], the inhibition at 1.11 µM was greater than 99%.

`CC(=O)Nc1cc(-c2cnc3c(c2)N(CC2CC2)S(=O)(=O)N3)ccn1` [Compound I-29, N-{4-[1-(cyclopropylmethyl)-2,2-dioxido-1,3-dihydro[1,2,5]thiadiazolo[3,4-b]pyridin-6-yl]pyridin-2-yl}acetamide]: the inhibition at 1.11 µM is greater than 99%.

Regarding `CC(=O)Nc1cc(-c2cnc(C)c(N3CC(NCc4ccccc4)CS3(=O)=O)c2)ccn1` (stereo not shown) [Compound I-357, N-{5-[4-(benzylamino)-1,1-dioxidoisothiazolidin-2-yl]-6-methyl-3,4′-bipyridin-2′-yl}acetamide], the inhibition at 1.11 µM was greater than 99%.

In the case of `Cc1ncc(-c2ccnc(NC(=O)C3CC3)c2)cc1C(=O)N(C)C12CC(C1)C2` [Compound I-388, N-(bicyclo[1.1.1]pent-1-yl)-2′-[(cyclopropylcarbonyl)amino]-N,6-dimethyl-3,4′-bipyridine-5-carboxamide], the inhibition at 1.11 µM was found to be 98%.

As to `CC(=O)Nc1cc(-c2cnc(C)c(N3CC(N(C)C)CS3(=O)=O)c2)ccn1` (single isomer, unassigned) [Compound I-497, (R or S)—N-(5-(4-(dimethylamino)-1,1-dioxidoisothiazolidin-2-yl)-6-methyl-[3,4′-bipyridin]-2′-yl)acetamide], the inhibition at 1.11 µM was greater than 99%.

Staying with this assay, now noted: read-out: Percent Inhibition.
In the case of `CC(=O)Nc1cc(-c2cnc(N)c(S(=O)(=O)Cc3ccccc3Cl)c2)ccn1` [Compound I-172, N-{6-amino-5-[(2-chlorobenzyl)sulfonyl]-3,4′-bipyridin-2′-yl}acetamide], the inhibition at 1.11 µM is greater than 99%.
